Measurements taken from the NIST ThermoML archive (doi:10.1021/je034189g).
Numbers after ± are expanded uncertainties.

Conditions: Liquid; Ebulliometric method (Recirculating still)

Compound | Normal boiling temperature
COc1ccccc1 [anisole] | 153.62 ± 0.15 °C
c1ccccc1 [benzene] | 80.01 ± 0.15 °C
C1CCCCC1 [cyclohexane] | 80.63 ± 0.15 °C
CCCCCO [pentan-1-ol] | 137.63 ± 0.15 °C
